Reference: patent US12692249B2, “WDR5 inhibitors and modulators” (Vanderbilt University, priority 2019, dated 2026)
Read-outs that look alike come from different tables or passages of the source.

How the values were obtained:
[1] = system: MV4:11 human cancer cell lines; experiment: Cellular viability / anti-proliferative assay, CellTiter-Glo, 5 day protocol; format: cell-based; conditions: Homo sapiens, MV4-11, 120 h, read-out: GI50 on cellular proliferation of MV4:11 human cancer cell lines
How it was run: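 MV-4-11 cells in IMDM with 10% FBS, 200 cells/well, exposed 5 days to 22 two-fold dilutions from 30 μM, final DMSO 0.3%. Viability read by CellTiter-Glo luminescence; GI50 from sigmoidal dose-response fit, mean of at least two replicates.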

WDR5 = WDR5 (Homo sapiens, UniProt P61964); experiment: TR-FRET competition binding assay, displacement of 10mer-Thr-FAM MLL peptide probe from His-tagged WDR5; conditions: WDR5-His tag (residues 24-334) 2 nM; 10mer-Thr-FAM 150 nM; 60 min, room temperature; read-out: Ki for Inhibition of WDR5 by TR-FRET assay
[2] = MV4:11 cells, 5 day incubation, CellTiter-Glo, mean of at least two replicates

SMILES	GI50 [1, 2]	Ki (WDR5)	GI50 [1]
COc1cc(N2CCN(C)CC2)c2cncc(N3CCc4c(cc(Cn5ccnc5)cc4-c4cn(C)nc4C(F)(F)F)C3=O)c2c1 [Example 123, 7-((1H-Imidazol-1-yl)methyl)-6′-methoxy-5-(1-methyl-3-(trifluoromethyl)-1H-pyrazol-4-yl)-8′-(4-methylpiperazin-1-yl)-3,4-dihydro-1H-[2,4′-biisoquinolin]-1-one]	< 20 nM	0.04 nM	–
COc1ccc2ncnc(N3CCc4c(cc(Cn5ccnc5)cc4-c4cn(C)nc4C(F)(F)F)C3=O)c2c1 [Example 25, 7-((1H-Imidazol-1-yl)methyl)-2-(6-methoxyquinazolin-4-yl)-5-(1-methyl-3-(trifluoromethyl)-1H-pyrazol-4-yl)-3,4-dihydroisoquinolin-1(2)-one]	70 nM	0.061 nM	–
COc1cc(C(=O)NC2CN(C(=O)c3ccncc3)C2)c2nccc(N3CCc4c(cc(Cn5ccnc5)cc4-c4cn(C)nc4C(F)(F)F)C3=O)c2c1 [Example 242, 4-(7-((1H-Imidazol-1-yl)methyl)-5-(1-methyl-3-(trifluoromethyl)-1H-pyrazol-4-yl)-1-oxo-3,4-dihydroisoquinolin-2(1H)-yl)-N-(1-isonicotinoylazetidin-3-yl)-6-methoxyquinoline-8-carboxamide]	29 nM	< 0.02 nM	–
CCc1cc(F)c2cncc(N3CCc4c(cc(Cn5ccnc5)cc4-c4cn(C)nc4C(F)(F)F)C3=O)c2c1 [Example 115, 7-((1H-Imidazol-1-yl)methyl)-6′-ethyl-8′-fluoro-5-(1-methyl-3-(trifluoromethyl)-1H-pyrazol-4-yl)-3,4-dihydro-1H-[2,4′-biisoquinolin]-1-one]	40 nM	0.031 nM	–
COCCN1CCN(Cc2cc(OC)cc3c(N4CCc5c(cc(Cn6ccnc6)cc5-c5cn(C)nc5C(F)(F)F)C4=O)ccnc23)CC1 [Example 144, 7-((1H-Imidazol-1-yl)methyl)-2-(6-methoxy-8-((4-(2-methoxyethyl)piperazin-1-yl)methyl)quinolin-4-yl)-5-(1-methyl-3-(trifluoromethyl)-1H-pyrazol-4-yl)-3,4-dihydroisoquinolin-1(2H)-one]	< 20 nM	0.047 nM	–
CCc1cc2c(N3CCc4c(cc(Cn5ccnc5)cc4-c4cn(C)nc4C(F)(F)F)C3=O)cccc2nc1C [Example 117, 7-((1H-Imidazol-1-yl)methyl)-2-(3-ethyl-2-methylquinolin-5-yl)-5-(1-methyl-3-(trifluoromethyl)-1H-pyrazol-4-yl)-3,4-dihydroisoquinolin-1(2H)-one]	–	0.036 nM	64 nM
COc1ccc2nccc(N3CCc4c(cc(Cn5ccnc5C)cc4-c4cn(C)nc4C(F)(F)F)C3=O)c2c1 [Example 4, 2-(6-Methoxyquinolin-4-yl)-7-((2-methyl-1H-imidazol-1-yl)methyl)-5-(1-methyl-3-(trifluoromethyl)-1H-pyrazol-4-yl)-3,4-dihydroisoquinolin-1(2H)-one]	< 20 nM	< 0.02 nM	–
COc1cc(Br)c2nc(C)cc(N3CCc4c(cc(Cn5ccnc5)cc4-c4cn(C)nc4C(F)(F)F)C3=O)c2c1 [Example 101, 7-((1H-imidazol-1-yl)methyl)-2-(8-bromo-6-methoxy-2-methylquinolin-4-yl)-5-(1-methyl-3-(trifluoromethyl)-1H-pyrazol-4-yl)-3,4-dihydroisoquinolin-1(2H)-one]	< 20 nM	0.023 nM	–
